Key:
MOLM14 (D835Y) cells = test: Combination drug screening, Cell Titer Glo, MOLM14 (D835Y) cells; details: MOLM14(D835Y) cells; for Excess HSA Score: sum score, listed as compound in combination with Compound 106, 48 hours;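 for all read-outs here: MOLM14 cells with FLT3 ITD plus D835Y, 500 per well in 1536-well plates, 10-point dose ranges, luminescent viability after 48 h, negative Excess HSA indicates synergy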
Procedure: Briefly, 10 nL of the compound shown below was acoustically dispensed into 1536-well white polystyrene tissue culture-treated plates with an Echo 550 acoustic liquid handler (Labcyte). Cells were then added to compound-containing plate at a density of 500-cells/well in 5 μL of medium. A 6-point or 10-point custom concentration range was used for all listed drugs. Plates were incubated for 48 hours at standard incubator conditions covered by a stainless steel gasketed lid to prevent evaporation. 48h post compound addition, 3 μL of Cell Titer Glo (Promega) were added to each well and plates were incubated at room temperature for 15 minutes with the stainless-steel lid in place. Luminescence readings were taken using a Viewlux imager (PerkinElmer) with a 2 second exposure time per plate.
A smaller concentration indicates higher potency to synergize with Venetoclax.
A smaller concentration indicates higher potency to synergize with azacitidine.
(§1) This is a cell line that has the FLT3 ITD mutation but also the FLT3 D835Y kinase domain mutation. […] Excess HSA is a measure of synergy vs. additivity or antagonism, wherein a negative Excess HSA value is indicative of synergy.

THP1 cells = test: Combination drug screening, Cell Titer Glo, THP1 cells; details: THP1 cells; for Excess HSA Score: sum score, 10 × 10 dataset, 48 hours;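 for all read-outs here: luminescence read out in 1536-well plates seeded with 500 THP1 cells per well, each drug spanning a 10-point concentration range in the combination matrix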
Source text: A smaller concentration indicates higher potency to synergize with Venetoclax. […] The numbers in each cell represent the % response (left) or the Delta Bliss score (right) at each given concentration combination.
A smaller concentration indicates higher potency to synergize with azacitidine. […] The numbers in each cell represent the % response (left) or the Delta Bliss score (right) at each given concentration combination.
as §1
Briefly, 10 nL of compounds were acoustically dispensed into 1536-well white polystyrene tissue culture-treated plates with an Echo 550 acoustic liquid handler (Labcyte). MOLM14 (D835Y) or THP1 cells were then added to compound-containing plates at a density of 500-cells/well in 5 μL of medium. A 10-point custom concentration range was used for all listed drugs. […] 48h post compound addition, 3 μL of Cell Titer Glo (Promega) were added to each well and plates were incubated at room temperature for 15 minutes with the stainless-steel lid in place. Luminescence readings were taken using a Viewlux imager (PerkinElmer) with a 2 second exposure time per plate.

[1] = combination therapy of CG-806 (a FLT3/BTK inhibitor) and the named additional compound, 110 × 10 dataset
[2] = combination therapy of Compound 45a and the named additional compound, 110 × 10 dataset
[3] = combination therapy of Compound 46a and the named additional compound, 110 × 10 dataset
[4] = combination therapy of Compound 47a and the named additional compound, 110 × 10 dataset
[5] = combination therapy of Compound 48a and the named additional compound, 110 × 10 dataset
[6] = combination therapy of Compound 102 and the named additional compound, 10 × 10 dataset
[7] = combination therapy of Gilteritinib (a FLT3/AXL inhibitor) and the named additional compound, 110 × 10 dataset
[8] = combination therapy of PF-06650833 (an IRAK4 selective inhibitor) and the named additional compound, 110 × 10 dataset
[9] = combination therapy of Quizartinib (a FLT3/Kit/PDGFRa inhibitor) and the named additional compound, 110 × 10 dataset
[10] = combination therapy of emavusertib (CA-4948) (a FLT3/IRAK4 inhibitor) and the named additional compound, 110 × 10 dataset
[11] = listed as compound in combination with CG-806 (a FLT3/BTK inhibitor)
[12] = listed as compound in combination with Compound 45a
[13] = listed as compound in combination with Compound 46a
[14] = listed as compound in combination with Compound 47a
[15] = listed as compound in combination with Compound 48a
[16] = listed as compound in combination with Compound 102
[17] = listed as compound in combination with Compound 106
[18] = listed as compound in combination with Gilteritinib (a FLT3/AXL inhibitor)
[19] = listed as compound in combination with PF-06650833 (an IRAK4 selective inhibitor)
[20] = listed as compound in combination with Quizartinib (a FLT3/Kit/PDGFRa inhibitor)
[21] = listed as compound in combination with emavusertib (CA-4948) (a FLT3/IRAK4 inhibitor)

Row | Compound | Sum Excess HSA Score (MOLM14 (D835Y) cells; [1]) | Sum Excess HSA Score (MOLM14 (D835Y) cells; [2]) | Sum Excess HSA Score (MOLM14 (D835Y) cells; [3]) | Sum Excess HSA Score (MOLM14 (D835Y) cells; [4]) | Sum Excess HSA Score (MOLM14 (D835Y) cells; [5]) | Sum Excess HSA Score (MOLM14 (D835Y) cells; [6]) | Sum Excess HSA Score (MOLM14 (D835Y) cells; [7]) | Sum Excess HSA Score (MOLM14 (D835Y) cells; [8]) | Sum Excess HSA Score (MOLM14 (D835Y) cells; [9]) | Sum Excess HSA Score (MOLM14 (D835Y) cells; [10]) | Excess HSA Score (MOLM14 (D835Y) cells; 10 × 10 dataset) | Excess HSA Score (THP1 cells; [11]) | Excess HSA Score (THP1 cells; [12]) | Excess HSA Score (THP1 cells; [13]) | Excess HSA Score (THP1 cells; [14]) | Excess HSA Score (THP1 cells; [15]) | Excess HSA Score (THP1 cells; [16]) | Excess HSA Score (THP1 cells; [17]) | Excess HSA Score (THP1 cells; [18]) | Excess HSA Score (THP1 cells; [19]) | other results
1 | CCN(C(=O)c1cc(F)ccc1Oc1cncnc1N1CC2(CCN(C[C@H]3CC[C@H](NS(=O)(=O)CC)CC3)CC2)C1)C(C)C [SNDX-5613] | −1.886 | −24.88 | −263.9 | −358.8 | −804.1 | −748.9985 | 47.75 | −301.3 | −724.1 | −321 | −210.8 | 321.1921 | 434.8 | 262.8 | 247.1 | 138.2 | 156.4 | 375.4 | 306.1 | −120 | Excess HSA Score (THP1 cells; [20]): 413.2; Excess HSA Score (THP1 cells; [21]): 468.5
2 | CC(=O)c1c(C)c2cnc(Nc3ccc(N4CCNCC4)cn3)nc2n(C2CCCC2)c1=O [Palbociclib] | −246 | −715.3 | −844.8 | −616.3 | −583.3 | −537.2 | −576.9 | 94.98 | −1120 | −557.8 | −252.8 | −368.3 | −912.2 | −907.6 | −166.9 | −166.7 | −116.5 | −590.5 | −826.9 | −610 | Comments (THP1 cells; combination with Quizartinib): Synergistic (a negative Excess HSA value is indicative of synergy); Excess HSA Score (THP1 cells; [20]): −794.7; Excess HSA Score (THP1 cells; [21]): 190.2
3 | C[C@]12C=CC(=O)C=C1CC[C@@H]1[C@@H]2[C@@H](O)C[C@@]2(C)[C@H]1CC[C@]2(O)C(=O)CO [Prednisolone, prednisolone] | −218 | −106.5 | −52.71 | −58.8974 | −339.3 | −260.2 | −583.8 | −431.6 | 213.4 | −4.3456 | −5.273 | 335.9 | 438.5 | 174.9 | 134.6 | 511.8 | 26.91 | 274.3 | −110.9078 | −254.8 | Excess HSA Score (THP1 cells; [20]): −81.1; Excess HSA Score (THP1 cells; [21]): 70.05
4 | N#Cc1ccnc(N2C(=O)CC[C@H]2C(=O)N(c2cncc(F)c2)[C@H](C(=O)NC2CC(F)(F)C2)c2ccccc2Cl)c1 [Ivosidenib, ivosidenib] | −199.6 | 259.8 | −118.7 | 218.5 | −299.6 | −713.3 | 347.6 | −172.4 | 244.1367 | 35.12 | 28.0568 | 93.96 | −296.7 | −42.9834 | −122.1 | −0.4511 | −215.7606 | 354.6 | 338 | −152.4 | Excess HSA Score (THP1 cells; [20]): 177.8; Excess HSA Score (THP1 cells; [21]): 285
5 | NC1(C(=O)N[C@@H](CCO)c2ccc(Cl)cc2)CCN(c2nc[nH]c3nccc2-3)CC1 [AZD-5363, capivasertib] | −2332 | −239.9 | 637.8 | −894 | −939.6 | −439.3 | −966.8597 | 47.56 | −1637 | −850.1 | −105.2 | −189.8 | −1027.6539 | −276.8 | 124.8 | −732.6 | −198.6 | −134.3 | 989.6 | −649.7 | Comments (synergistic / antagonistic) (MOLM14 (D835Y) cells; [1]): Synergistic (a negative Excess HSA value is indicative of synergy); Comments (THP1 cells; combination with Compound 48a): Synergistic (a negative Excess HSA value is indicative of synergy); Comments (THP1 cells; combination with emavusertib (CA-4948)): Synergistic (a negative Excess HSA value is indicative of synergy); Excess HSA Score (THP1 cells; [20]): 17.2569; Excess HSA Score (THP1 cells; [21]): −1144.9723
6 | Nc1cccc2c1CN(C1CCC(=O)NC1=O)C2=O (centres unmarked) [Lenalidomide] | 141.5 | 784.7 | 12.1 | 868.6 | 405.4 | 59.07 | 527.6728 | −429.8 | 565.7343 | 390.3 | 754.6 | 534 | −245.1 | 533.2 | 188.9 | −51.13 | 12.2 | 386.8 | 355 | 74.4868 | Excess HSA Score (THP1 cells; [20]): 472.5204; Excess HSA Score (THP1 cells; [21]): 1167
7 | CC(C)Nc1cc(-c2c[nH]c(C(=O)N[C@H](CO)c3cccc(Cl)c3)c2)c(Cl)cn1 [Ulixertinib, ulixertinib] | 258.3 | 554.5 | −208.5 | 112.6 | −576.8 | −768.5 | 29.29 | 548.6 | 1180 | −352.8 | −71.53 | 518 | −14.94 | 260.4 | −663.3 | −24.53 | −301.9 | −630.1436 | 690.556 | 552.8 | Excess HSA Score (THP1 cells; [20]): −530.2; Excess HSA Score (THP1 cells; [21]): −230.3

— US20250368648A1, “MULTI-CYCLIC IRAK AND FLT3 INHIBITING COMPOUNDS AND USES THEREOF” (CHILDREN'S HOSPITAL MEDICAL CENTER, priority 2022, published 2025)
